Read-outs that look alike come from different tables or passages of the source.
Experiments:
[1] = system: parental untransformed BaF3 cells; experiment: Tritiated thymidine uptake cell proliferation assay, parental BaF3; type: cell-based; settings: 3H-thymidine uptake, 72 h, medium with IL-3
NPM/ALK+ Karpas299 cells = experiment: NPM/ALK+ Karpas299 tumour growth in SCID mice; type: in vivo; settings: oral gavage, 150 mg/kg twice per day, subcutaneous Karpas299 tumors in SCID mice
Protocol: The in vivo studies were approved by the Italian Ministry of Research and by the University internal ethical committee, and were run according to guidelines to reduce animal pain. Ten million NPM/ALK+ Karpas299 cells were injected subcutaneously in the right flank of SCID mice. Ten days later, when the tumors reached the size of 100 mm3 on average, mice were randomized either to control arm, receiving vehicle only (0.5% carboxymethylcellulose and 0.1% Tween80), or to treatment arm, receiving compound R533 by oral gavage, 150 mg/kg twice per day. Tumor size was measured bi-weekly by a caliper. General toxicity was assessed by monitoring weight loss, and by visual inspection for any sign of stress or suffering, including eye closure or bulging, ruffled/dull fur, reduced mobility, drowsiness, diarrhea.

[2] = biological target: wild-type ALK kinase (rALK) (Homo sapiens (Human), UniProt Q9UM73); experiment: ELISA-based in vitro kinase assay, wild-type ALK; type: biochemical; settings: recombinant ALK, 0.3 mM ATP; read-out: ELISA ALK WT IC50
Sequence of wild-type ALK kinase (rALK) (Q9UM73 19-1620): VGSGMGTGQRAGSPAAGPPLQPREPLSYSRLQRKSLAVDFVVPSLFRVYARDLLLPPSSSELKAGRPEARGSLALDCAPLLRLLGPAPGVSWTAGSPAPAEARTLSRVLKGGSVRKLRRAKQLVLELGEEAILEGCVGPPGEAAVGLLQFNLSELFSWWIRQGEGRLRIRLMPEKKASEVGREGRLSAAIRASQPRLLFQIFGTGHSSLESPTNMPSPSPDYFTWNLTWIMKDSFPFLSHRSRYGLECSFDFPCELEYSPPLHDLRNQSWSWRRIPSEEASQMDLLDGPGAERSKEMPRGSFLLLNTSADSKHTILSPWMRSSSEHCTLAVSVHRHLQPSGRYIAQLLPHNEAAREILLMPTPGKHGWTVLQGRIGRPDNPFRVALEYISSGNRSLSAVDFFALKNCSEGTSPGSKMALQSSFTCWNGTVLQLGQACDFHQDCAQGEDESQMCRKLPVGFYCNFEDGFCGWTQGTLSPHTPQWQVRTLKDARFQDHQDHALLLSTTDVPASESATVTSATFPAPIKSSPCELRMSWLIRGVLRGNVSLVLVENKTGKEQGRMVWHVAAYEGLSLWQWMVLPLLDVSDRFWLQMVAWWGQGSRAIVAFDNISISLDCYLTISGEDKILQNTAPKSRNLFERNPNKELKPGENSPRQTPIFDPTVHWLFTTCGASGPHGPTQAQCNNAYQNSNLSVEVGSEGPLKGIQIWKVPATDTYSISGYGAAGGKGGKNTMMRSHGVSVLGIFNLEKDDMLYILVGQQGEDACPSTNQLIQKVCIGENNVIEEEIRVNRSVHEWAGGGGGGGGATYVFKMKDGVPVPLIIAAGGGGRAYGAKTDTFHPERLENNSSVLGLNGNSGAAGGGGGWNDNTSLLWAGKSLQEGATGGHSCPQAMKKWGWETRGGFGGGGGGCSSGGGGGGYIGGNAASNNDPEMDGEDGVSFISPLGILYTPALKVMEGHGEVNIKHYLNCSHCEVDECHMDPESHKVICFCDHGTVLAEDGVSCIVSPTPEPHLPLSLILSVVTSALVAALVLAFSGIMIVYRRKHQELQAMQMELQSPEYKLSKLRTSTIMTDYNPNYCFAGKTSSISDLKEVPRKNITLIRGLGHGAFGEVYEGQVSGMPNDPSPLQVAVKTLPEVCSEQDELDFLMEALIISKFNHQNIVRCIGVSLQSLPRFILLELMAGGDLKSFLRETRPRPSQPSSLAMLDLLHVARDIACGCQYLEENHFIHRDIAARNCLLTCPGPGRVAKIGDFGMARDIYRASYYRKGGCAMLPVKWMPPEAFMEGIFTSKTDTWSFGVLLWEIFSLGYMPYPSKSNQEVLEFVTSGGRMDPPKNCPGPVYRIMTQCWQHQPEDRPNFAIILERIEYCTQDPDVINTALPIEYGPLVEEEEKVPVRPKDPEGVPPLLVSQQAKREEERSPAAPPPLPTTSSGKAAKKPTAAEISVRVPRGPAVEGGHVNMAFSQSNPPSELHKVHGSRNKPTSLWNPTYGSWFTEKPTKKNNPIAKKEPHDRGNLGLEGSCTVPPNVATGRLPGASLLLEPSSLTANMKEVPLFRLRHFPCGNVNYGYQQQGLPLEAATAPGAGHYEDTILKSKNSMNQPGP
Protocol: Recombinant 3C protease was used to remove the GST tag. Purified ALK was used to screen inhibitors in the ELISA-based kinase assay, as follows: Nunc-Immuno 96-well plates were incubated overnight at 30° C. with coating solution containing 2 μg of a specific ALK peptide substrate ([…]) in PBS. Wells were then washed with 200 μL of wash buffer (PBS-Tween 0.05%) and incubated with 4% BSA in PBS for at least 2 h at 30° C. […] For inhibitor testing the reaction mix was preincubated with inhibitor or vehicle for 10 min at room temperature before transferring to the ELISA plate. After the reaction, the wells were washed 5 times with 200 uL of wash buffer. Phosphorylated peptide was detected using 100 μL/well of a mouse monoclonal anti-phosphotyrosine antibody (clone 4G10 UpstateBiotech Ltd) diluted 1:2000 in PBS+4% BSA. After 30 min incubation at room temperature the antibody was removed and wells were washed as described above. 100 μL of a secondary antibody (anti-mouse IgG, Horseradish Peroxidase linked whole antibody, Amersham Pharmacia Biotech) diluted 1:1000 in PBS+4% BSA was added to each well and the plate was incubated again for 30 min at room temperature before washing as above. The plate was developed using 100 μL/well TMB Substrate Solution (Pierce) and the reaction was stopped by adding an equal volume of 1M H2SO4. Finally, the absorbance was read at 450 nm using an ELISA plate reader (Bio-Rad).

[3] = system: BaF3 cells transformed with the oncogenic fusion protein NPM/ALK
[4] = system: BaF3 cells transformed with the oncogenic fusion protein NPM/ALK; experiment: cells; settings: read-out: BaF3 NPM/ALK WT IC50

Row | Molecule | IC50 ([1]; Mus musculus, BaF3) [µM] | further results
1 | CN1CCN(c2ccc(-c3ccc4[nH]c5nccc(-c6ccc(Cc7ccccc7)cc6)c5c4c3)cc2)CC1 [Example 16, 4-(4-Benzylphenyl)-6-[4-(4-methylpiperazin-1-yl)-phenyl]-9H-pyrido[2,3-b]indole] | 8.7 | Tumor size (tumour growth curves) (NPM/ALK+ Karpas299 cells): remarkable effect
2 | CN1CCN(c2ccc(-c3ccc4[nH]c5nccc(-c6ccc(N7CCN(C)CC7)cc6)c5c4c3)cc2)CC1 [Example 20, 4,6-Bis-[4-(4-methylpiperazin-1-yl)-phenyl]-9H-pyrido[2,3-b]indole] | 3.6 | IC50 [2]: 10 µM; Selectivity Index (WT) [3]: 7; IC50 [4]: 0.52 µM
3 | COc1ccccc1C#Cc1ccnc2c1c1cc(-c3ccc(N4CCN(C)CC4)cc3)ccc1n2C [Example 45, 4-(2-Methoxyphenylethynyl)-9-methyl-6-[4-(4-methylpiperazin-1-yl)-phenyl]-9H-pyrido[2,3-b]indole] | 2.1 | IC50 [2]: 3.8 µM; Selectivity Index (WT) ([3]; BaF3 parental vs NPM/ALK WT): 2; IC50 [4]: 1.1 µM
4 | CN1CCN(c2ccc(-c3ccc4[nH]c5nccc(/C=C/c6cccc(F)c6)c5c4c3)cc2)CC1 [Example 6, (E)-4-[2-(3-Fluorophenyl)vinyl]-6-[4-(4-methylpiperazin-1-yl)-phenyl]-9H-pyrido[2,3-b]indole] | 9.5 | 
5 | CN1CCN(c2ccc(-c3ccc4[nH]c5nccc(-c6cccc(-c7ccccc7)c6)c5c4c3)cc2)CC1 [Example 17, 4-Biphenyl-3-yl-6-[4-(4-methylpiperazin-1-yl)-phenyl]-9H-pyrido[2,3-b]indole] | 2.7 | 
6 | CN1CCN(c2ccc(-c3ccc4[nH]c5nccc(-c6ccc(-c7ccccc7)cc6F)c5c4c3)cc2)CC1 [Example 15, 4-(3-Fluoro-biphenyl-4-yl)-6-[4-(4-methylpiperazin-1-yl)-phenyl]-9H-pyrido[2,3-b]indole] | 6.3 | 
7 | CN1CCN(c2ccc(-c3ccc4[nH]c5nccc(C#Cc6ccccc6C(F)(F)F)c5c4c3)cc2)CC1 [Example 39, 6-[4-(4-Methylpiperazin-1-yl)-phenyl]-4-(2-trifluoromethyl-phenylethynyl)-9H-pyrido[2,3-b]indole] | 1.2 | 
8 | CN1CCN(c2ccc(-c3ccc4[nH]c5nccc(/C=C/c6ccccc6Cl)c5c4c3)cc2)CC1 [Example 19, (E)-4-(2-(2-Chlorophenyl)vinyl)-6-(4-(4-methylpiperazin-1-yl)phenyl)-9H-pyrido[2,3-b]indole] | 2 | 
9 | CN1CCN(c2ccc(-c3ccc4[nH]c5nccc(/C=C/c6ccccc6)c5c4c3)cc2)CC1 [Example 2, (E)-6-[4-(4-Methylpiperazin-1-yl)-phenyl]-4-(2-phenylvinyl)-9H-pyrido[2,3-b]indole] | 0.8 | 
10 | Cc1ccc(Cn2cc(-c3ccnc4[nH]c5ccc(-c6ccc(N7CCN(C)CC7)cc6)cc5c34)nn2)cc1 [Example 47, 4-(1-(4-methylbenzyl)-1H-1,2,3-triazol-4-yl)-6-(4-(4-methylpiperazin-1-yl)phenyl)-9H-pyrido[2,3-b]indole] |  | IC50 [2]: 6.8 µM
11 | C#Cc1ccnc2[nH]c3ccc(-c4ccc(N5CCN(C)CC5)cc4)cc3c12 [Example 44, 4-Ethynyl-6-(4-(4-methylpiperazin-1-yl)phenyl)-9H-pyrido[2,3-b]indole] | 0.35 | IC50 [2]: 29 µM; Selectivity Index (WT) [3]: 2; IC50 [4]: 0.17 µM
12 | 62:38 mixture of (E)-6-(4-(4-methylpiperazin-1-yl)phenyl)-4-(1-phenylbut-1-en-2-yl)-9H-pyrido[2,3-b]indole and (E)-6-(4-(4-methylpiperazin-1-yl)phenyl)-4-(1-phenylbut-1-en-1-yl)-9H-pyrido[2,3-b]indole [Example 31] |  | IC50 [1]: 0.93 µM
13 | CC(C)[Si](C#Cc1ccnc2[nH]c3ccc(-c4ccc(N5CCN(C)CC5)cc4)cc3c12)(C(C)C)C(C)C [Example 43, 6-(4-(4-Methylpiperazin-1-yl)phenyl)-4-((triisopropylsilyl)ethynyl)-9H-pyrido[2,3-b]indole] | 3.4 | 
14 | CN1CCN(c2ccc(-c3ccc4[nH]c5nccc(/C(=C/c6ccccc6)c6ccccc6)c5c4c3)cc2)CC1 [Example 25, (E)-4-(1,2-Diphenylvinyl)-6-[4-(4-methylpiperazin-1-yl)-phenyl]-9H-pyrido[2,3-b]indole] | 7.5 | 
15 | CN1CCN(c2ccc(-c3ccc4[nH]c5nccc(/C=C/c6ccc(F)cc6)c5c4c3)cc2)CC1 [Example 13, (E)-4-(2-(4-Fluorophenyl)vinyl)-6-(4-(4-methylpiperazin-1-yl)phenyl)-9H-pyrido[2,3-b]indole] | 7.6 | 
16 | COc1ccc(Sc2ccnc3[nH]c4ccc(-c5ccc(N6CCN(C)CC6)cc5)cc4c23)cc1 [Example 46, 4-(4-Methoxy-phenylsulfanyl)-6-[4-(4-methyl-piperazin-1-yl)-phenyl]-9H-pyrido[2,3-b]indole] |  | IC50 [2]: 5.7 µM
17 | CN1CCN(c2ccc(-c3ccc4[nH]c5nccc(/C=C/c6ccccc6F)c5c4c3)cc2)CC1 [Example 18, (E)-4-(2-(2-Fluorophenyl)vinyl)-6-(4-(4-methylpiperazin-1-yl)phenyl)-9H-pyrido[2,3-b]indole] | 5.1 | 
18 | COc1cc(-c2ccnc3[nH]c4ccc(-c5ccc(N6CCN(C)CC6)cc5)cc4c23)c(OC)cc1C(=O)c1ccccc1 [Example 50, (2,5-dimethoxy-4-(6-(4-(4-methylpiperazin-1-yl)phenyl)-9H-pyrido[2,3-b]indol-4-yl)phenyl)(phenyl)methanone] | 1.1 | 
19 | CN1CCN(c2ccc(-c3ccc4[nH]c5nccc(Nc6cccc([N+](=O)[O-])c6)c5c4c3)cc2)CC1 [Example 35, 6-(4-(4-Methylpiperazin-1-yl)phenyl)-N-(3-nitrophenyl)-9H-pyrido[2,3-b]indol-4-amine] | 0.48 | 
20 | CN1CCN(c2ccc(-c3ccc4[nH]c5nccc(/C=C/c6ccccc6C(F)(F)F)c5c4c3)cc2)CC1 [Example 11, (E)-6-(4-(4-Methylpiperazin-1-yl)phenyl)-4-(2-(2-(trifluoromethyl)phenyl)vinyl)-9H-pyrido[2,3-b]indole] | 1.7 | 
21 | CN1CCN(c2ccc(-c3ccc4[nH]c5nccc(-c6ccc(OCc7ccccc7)cc6)c5c4c3)cc2)CC1 [Example 8, 4-(4-Benzyloxyphenyl)-6-[4-(4-methylpiperazin-1-yl)-phenyl]-9H-pyrido[2,3-b]indole] | 5 | 
